In patent publication US7585859B2, “PDE4B inhibitors and uses therefor” (Plexxikon, Inc., priority 2004, dated 2009):

These molecules were tested against T1, PDE4B: The catalytic domain of human PDE4B from S152-S528 (Homo sapiens, UniProt Q07343) (assay: PDE4 IC50 determination by Scintillation Proximity Assay, PDE4B). Conditions: Table 1B, Formula I compounds; read-out: IC50 PDE4B.
T1 construct: His6 (N); thrombin cleavage site (N); made in house; host or cells: E. coli
Format: biochemical
Experimental: (§1) IC50s were determined by Scintillation Proximity Assay (SPA). The principle of the assay is based on the fact that cAMP, the PDE4 substrate, binds weakly to Yittrium Silicate SPA beads, whereas AMP, the product of PDE4 hydrolysis binds strongly. Thus, the extent of PDE4 hydrolysis of a sample of [^3H]cAMP can be measured because only the
(§2) [^3H]AMP produced by PDE4 hydrolysis will bind to the SPA beads and produce a scintillation signal.
(§3) PDE4 enzymes used for IC50 assays were:
(§4) Enzyme was stored in 50% glycerol at −20°.
(§5) In addition to the compound dilutions, each assay plate contained control wells with 1 μl of DMSO (to define 0% enzyme inhibition) or 1 μl of 200 μM roflumilast (to define 100% enzyme inhibition). […] Next, 10 μl of PDE4 enzyme in assay buffer was added and the plates were shaken for 30 s. at 1000 rpm to start the cAMP hydrolysis reaction. The concentrations of enzyme used were: PDE4B, 80 ng/ml; PDE4D, 4 ng/ml; PDE4B2, 2.5 μl of 50% glycerol stock/ml; PDE4D5 0.083 μl of 50% glycerol stock/ml. Assay plates were covered and incubated for 30 min. at 30°. […] The assay plates were covered with clear plastic film, centrifuged for 1 min. at 1000 RPM to settle the SPA beads, and counted using a Wallac TriLux scintillation counter. IC50's were calculated from the raw assay data by non-linear regression curve fitting using the Assay Explorer software package from MDL.

T1 sequence (Q07343 with tags, fused parts or gaps): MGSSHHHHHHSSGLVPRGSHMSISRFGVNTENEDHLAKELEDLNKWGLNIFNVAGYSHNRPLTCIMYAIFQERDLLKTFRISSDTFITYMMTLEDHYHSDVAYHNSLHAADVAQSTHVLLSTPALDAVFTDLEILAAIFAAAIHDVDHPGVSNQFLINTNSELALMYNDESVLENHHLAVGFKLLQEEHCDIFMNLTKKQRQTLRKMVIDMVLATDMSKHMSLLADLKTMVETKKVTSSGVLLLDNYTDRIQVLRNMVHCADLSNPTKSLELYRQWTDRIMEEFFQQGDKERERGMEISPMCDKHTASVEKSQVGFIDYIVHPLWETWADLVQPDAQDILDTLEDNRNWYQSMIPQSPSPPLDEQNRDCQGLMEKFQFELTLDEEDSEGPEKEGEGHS

Row | IC50 | Molecule
1 | > 10 µM | Cc1cc(=O)[nH]c2sc(C(=O)c3ccc(Br)cc3)c(N)c12 [Compound 1-3, 3-Amino-2-(4-bromo-benzoyl)-4-methyl-7H-thieno[2,3-b]pyridin-6-one]
2 | > 10 µM | CC1C2=C(CC(C)(C)CC2=O)Nc2sc(C(N)=O)c(N)c21 (centres unmarked) [Compound 1-4, 3-Amino-4,7,7-trimethyl-5-oxo-4,5,6,7,8,9-hexahydro-thieno[2,3-b]quinoline-2-carboxylic acid amide]
3 | < 10 µM | CC(=O)C1=C(C)Nc2sc(C(N)=O)c(N)c2C1c1ccc(Cl)cc1 (centres unmarked) [Compound 1-5, 5-Acetyl-3-amino-4-(4-chloro-phenyl)-6-methyl-4,7-dihydro-thieno[2,3-b]pyridine-2-carboxylic acid amide]
4 | > 10 µM | CC(=O)C1=C(C)Nc2sc(C(N)=O)c(N)c2C1c1ccco1 (centres unmarked) [Compound 1-7, 5-Acetyl-3-amino-4-furan-2-yl-6-methyl-4,7-dihydro-thieno[2,3-b]pyridine-2-carboxylic acid amide]
5 | < 10 µM | CCc1ccc(C(=O)c2sc3c(c2N)C(c2cccnc2)C(C(C)=O)=C(C)N3)cc1 (centres unmarked) [Compound 1-8, 1-[3-Amino-2-(4-ethyl-benzoyl)-6-methyl-4-pyridin-3-yl-4,7-dihydro-thieno[2,3-b]pyridin-5-yl]-ethanone]
6 | < 10 µM | CC(=O)C1=C(C)Nc2sc(C(=O)c3cccc([N+](=O)[O-])c3)c(N)c2C1c1cccnc1 (centres unmarked) [Compound 1-9, 1-[3-Amino-6-methyl-2-(3-nitro-benzoyl)-4-pyridin-3-yl-4,7-dihydro-thieno[2,3-b]pyridin-5-yl]-ethanone]
7 | > 10 µM | NC(=O)c1sc2[nH]c(=O)c(C(=O)O)cc2c1N [Compound 1-10, 3-Amino-2-carbamoyl-6-oxo-6,7-diliydro-thieno[2,3-b]pyridine-5-carboxylic acid]
8 | > 10 µM | Cc1ccc(C2CC(=O)Nc3sc(C(N)=O)c(N)c32)cc1 (centres unmarked) [Compound 1-11, 3-Amino-6-oxo-4-p-tolyl-4,5,6,7-tetrahydro-thieno[2,3-b]pyridine-2-carboxylic acid amide]
9 | < 10 µM | CCNc1sc(C(=O)OC)c(N)c1C#N [Compound 1-13, 3-Amino-4-cyano-5-ethylamino-thiophene-2-carboxylic acid methyl ester]
10 | < 10 µM | NC(=O)c1sc(Nc2ccccc2)c(-c2nc3ccccc3[nH]2)c1N [Compound 1-14, 3-Amino-4-(1H-benzoimidazol-2-yl)-5-phenylamino-thiophene-2-carboxylic acid amide]
11 | < 10 µM | COc1ccc(C(=O)c2sc(Nc3ccc(Oc4ccccc4)cc3)c(C#N)c2N)cc1 [Compound 1-174]
12 | < 10 µM | N#Cc1c(NC2CCCC2)sc(C(=O)c2cc(C(=O)N3CCOCC3)no2)c1N [Compound 1-175, 4-Amino-2-cyclopentylamino-5-[3-(morpholine-4-carbonyl)-isoxazole-5-carbonyl]-thiophene-3-carbonitrile]
13 | < 10 µM | N#Cc1c(NC2CCCC2)sc(C(=O)c2ccc(-c3ccccc3)cc2)c1N [Compound 1-188, 4-Amino-5-(biphenyl-4-carbonyl)-2-cyclopentylamino-thiophene-3-carbonitrile]
14 | < 10 µM | N#Cc1c(Nc2ccccc2Cl)sc(C(=O)c2ccc(Oc3ccccc3)cc2)c1N [Compound 1-194, 4-Amino-2-(2-chloro-phenylamino)-5-(4-phenoxy-benzoyl)-thiophene-3-carbonitrile]

Row | Molecule | IC50
15 | 3-Amino-2-(4-ethyl- phenylcarbamoyl)-6-oxo- 6,7-dihydro- thieno[2.3-b]pyridine- 5-carboxylic acid [Compound 1-6] | > 10 µM

Same assay, conditions: Table 3A, Formula III compounds; read-out: IC50 PDE4B

Row | IC50 | Molecule
16 | < 10 µM | CSc1nccc(-c2ccc(S(=O)(=O)Nc3ccc(Br)c4cccnc34)s2)n1 [Compound 3-17, 5-(2-Methylsulfanyl-pyrimidin-4-yl)-thiophene-2-sulfonic acid (5-bromo-quinolin-8-yl)-amide]
17 | < 10 µM | COc1ccc(NS(=O)(=O)c2ccc(-c3ccnc(SC)n3)s2)c2ncccc12 [Compound 3-18, 5-(2-Methylsulfanyl-pyrimidin-4-yl)-thiophene-2-sulfonic acid (5-methoxy-quinolin-8-yl)-amide]
18 | < 10 µM | CSc1ncc(-c2ccc(S(=O)(=O)N(C)c3cccc4cccnc34)s2)cn1 [Compound 3-19, 5-(2-Methylsulfanyl-pyrimidin-5-yl)-thiophene-2-sulfonic acid methyl-quinolin-8-yl-amide]
19 | < 10 µM | O=S(=O)(Nc1ccc(Br)c2cccnc12)c1ccc(-c2cnco2)s1 [Compound 3-35, 5-Oxazol-5-yl-thiophene-2-sulfonic acid (5-bromo-quinolin-8-yl)-amide]
20 | < 10 µM | COc1ccc(NS(=O)(=O)c2ccc(-c3cnco3)s2)c2ncccc12 [Compound 3-36, 5-Oxazol-5-yl-thiophene-2-sulfonic acid (5-methoxy-quinolin-8-yl)-amide]
21 | > 10 µM | COc1cc(NS(=O)(=O)c2c(Cl)cccc2Cl)c2ncccc2c1 [Compound 3-50, 2,6-Dichloro-N-(6-methoxy-quinolin-8-yl)-benzenesulfonamide]
22 | > 10 µM | O=S(=O)(Nc1cc(Br)cc2cccnc12)c1ccccc1 [Compound 3-59, N-(6-Bromo-quinolin-8-yl)-benzenesulfonamide]
23 | > 10 µM | COc1ccc(Br)cc1S(=O)(=O)Nc1cccc2cccnc12 [Compound 3-60, 5-Bromo-2-methoxy-N-quinolin-8-yl-benzenesulfonamide]
24 | < 10 µM | O=S(=O)(Nc1cccc2cccnc12)c1cccc(Nc2ccncn2)c1 [Compound 3-61, 3-(Pyrimidin-4-ylamino)-N-quinolin-8-yl-benzenesulfonamide]
25 | < 10 µM | CSc1nc(Nc2ccc(S(=O)(=O)Nc3cccc4cccnc34)cc2)c2ccccc2n1 [Compound 3-62, 4-(2-Methylsulfanyl-quinazolin-4-ylamino)-N-quinolin-8-yl-benzenesulfonamide]
26 | < 10 µM | CSc1nc(Nc2cccc(S(=O)(=O)Nc3cccc4cccnc34)c2)c2ccccc2n1 [Compound 3-63, 3-(2-Methylsulfanyl-quinazolin-4-ylamino)-N-quinolin-8-yl-benzenesulfonamide]
27 | < 10 µM | O=C(c1ccncc1)c1ccc(S(=O)(=O)Nc2cccc3cccnc23)cc1 [Compound 3-64, 4-(Pyridine-4-carbonyl)-N-quinolin-8-yl-benzenesulfonamide]
28 | < 10 µM | O=S(=O)(Nc1cccc2cccnc12)c1ccc(N2CCOCC2)cc1 [Compound 3-65, 4-Morpholin-4-yl-N-quinolin-8-yl-benzenesulfonamide]
29 | > 10 µM | Cc1nccc(-c2cccc(S(=O)(=O)Nc3ccc(Br)c4cccnc34)c2)n1 [Compound 3-67, N-(5-Bromo-quinolin-8-yl)-3-(2-methyl-pyrimidin-4-yl)-benzenesulfonamide]
30 | < 10 µM | COc1ccc(NS(=O)(=O)c2cccc(-c3ccnc(C)n3)c2)c2ncccc12 [Compound 3-68, N-(5-Methoxy-quinolin-8-yl)-3-(2-methyl-pyrimidin-4-yl)-benzenesulfonamide]
31 | > 10 µM | O=S(=O)(Nc1cccc2cccnc12)c1ccc(Oc2ccccc2)nc1 [Compound 3-69, 6-Phenoxy-pyridine-3-sulfonic acid quinolin-8-ylamide]

Same assay, conditions: second part of Table 2B (2-23 to 2-103), column 3; column is PDE4B in first part; read-out: IC 50 vs. indicated assay h TNFα

Row | IC50 | Molecule
32 | < 10 µM | Nc1nc(Nc2c(F)cccc2F)sc1C(=O)c1ccccc1 [Compound 2-44, [4-Amino-2-(2,6-difluoro-phenylamino)-thiazol-5-yl]-phenyl-methanone]

The molecules below were run against T2, PDE4D (Homo sapiens, UniProt Q08499) (assay: PDE4 IC50 determination by Scintillation Proximity Assay, PDE4D). Conditions: Table 1B, Formula I compounds; read-out: IC50 PDE4D.
T2 construct: PDE4D: The catalytic domain of human PDE4B from S3 16-V692; His6 (N); thrombin cleavage site (N); made in house; host or cells: E. coli
T2 sequence (Q08499 380-756): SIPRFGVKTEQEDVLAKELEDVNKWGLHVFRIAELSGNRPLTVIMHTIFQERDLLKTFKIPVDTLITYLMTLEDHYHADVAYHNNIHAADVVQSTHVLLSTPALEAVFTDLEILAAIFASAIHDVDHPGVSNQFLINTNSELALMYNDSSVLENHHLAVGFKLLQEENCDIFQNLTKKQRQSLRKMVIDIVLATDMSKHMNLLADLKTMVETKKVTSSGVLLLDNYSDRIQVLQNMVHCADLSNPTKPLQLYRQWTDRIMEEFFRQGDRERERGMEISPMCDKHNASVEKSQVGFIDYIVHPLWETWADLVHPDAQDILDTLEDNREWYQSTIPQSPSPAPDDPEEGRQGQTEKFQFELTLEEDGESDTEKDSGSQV
Format: biochemical
Experimental: as §1, §2, §3, §4, §5

Row | IC50 | Molecule
33 | > 10 µM | CC1C2=C(CC(C)(C)CC2=O)Nc2sc(C(N)=O)c(N)c21 (centres unmarked) [Compound 1-4, 3-Amino-4,7,7-trimethyl-5-oxo-4,5,6,7,8,9-hexahydro-thieno[2,3-b]quinoline-2-carboxylic acid amide]
34 | > 10 µM | Cc1cc(=O)[nH]c2sc(C(=O)c3ccc(Cl)c(Cl)c3)c(N)c12 [Compound 1-27, 3-Amino-2-(3,4-dichloro-benzoyl)-4-methyl-7H-thioeno[2,3-b]pyridin-6-one]

Same assay, conditions: first part of Table 2B (2-1 to 2-22); read-out: IC 50 vs. indicated assay PDE4D

Row | IC50 | Molecule
35 | > 10 µM | Nc1nc(Nc2ccc(Oc3ccccc3)cc2)sc1C(=O)c1cc(-c2ccccc2)no1 [Compound 2-8, [4-Amino-2-(4-phenoxy-phenylamino)-thiazol-5-yl]-(3-phenyl-isoxazol-5-yl)-methanone]

Same assay, conditions: second part of Table 2B (2-23 to 2-103), column 5; column is PDE4D in first part; read-out: IC 50 vs. indicated assay h TNFα

Row | IC50 | Molecule
36 | > 10 µM | Nc1nc(Nc2ccc(Oc3ccccc3)cc2)sc1C(=O)c1ccc(Oc2ccccc2)cc1 [Compound 2-47, [4-Amino-2-(4-phenoxy-phenylamino)-thiazol-5-yl]-(4-phenoxy-phenyl)-methanone]
37 | > 10 µM | Nc1nc(Nc2ccc(Oc3ccccc3)cc2)sc1C(=O)c1ccc(OC(F)F)cc1 [Compound 2-61, [4-Amino-2-(4-phenoxy-phenylamino)-thiazol-5-yl]-(4-difluoromethoxy-phenyl)-methanone]
38 | > 10 µM | COc1cccc(C(=O)c2sc(Nc3cccc(C#N)c3)nc2N)c1 [Compound 2-64, 3-[4-Amino-5-(3-methoxy-benzoyl)-thiazol-2-ylamino]-benzonitrile]
